Data on 32 molecules can be found in patent publication US10005767B2, “Compositions and methods for inhibition of the JAK pathway” (Rigel Pharmaceuticals, Inc., priority 2009, dated 2018).

In general, IC50 refers to the point on the concentration scale where inhibition reaches its midpoint.

Some results are limits rather than exact numbers.

The first assay concerns human primary T-cells, IL-2 stimulated proliferation (JAK-1 and JAK-3 dependent; reported as JAK3 activity). As to the kind of experiment: Human primary T-cell proliferation stimulated by IL-2 (Example 3). The settings on record: Homo sapiens, T-cell, tested under conditions described in Example 3 (IL-2 stimulated human primary T-cell proliferation); read-out: ability to inhibit JAK3 activity, IC50 range (Table V). It is filed as cell-based. In short, it runs like this:
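Peripheral-blood human T-cells pre-activated via TCR/CD28, IL-2-starved overnight, then cultured 72 h at 37 °C with compound in Yssel's medium containing IL-2 (80 U/mL in cell suspension). Proliferation read as viable-cell ATP by CellTiter-Glo luminescence; reduction versus control taken as JAK pathway inhibition.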
Regarding `Cc1cnc(Nc2ccc(C(=O)NC3CCC3)cc2)nc1Nc1ccc2oc(=O)n(COP(=O)(O)O)c2c1` [Compound I-150, (5-(2-(4-(cyclobutylcarbamoyl)phenylamino)-5-methylpyrimidin-4-ylamino)-2-oxobenzo[d]oxazol-3(2H)-yl)methyl dihydrogen phosphate], the IC50 was less than 500 nM. Same read-out and setting: with `Cc1ccc(Cl)c(Nc2ncc(C)c(Nc3ccc4oc(=O)[nH]c4c3)n2)c1` [Compound I-521, 5-(2-(2-chloro-5-methylphenylamino)-5-methylpyrimidin-4-ylamino)benzo[d]oxazol-2(3H)-one] the figure was less than 500 nM; with `Cc1cnc(Nc2ccc(N3CCNCC3)nc2)nc1Nc1ccc2oc(=O)[nH]c2c1` [II-10, N4-(benzo[d]oxazol-2(3H)-on-5-yl)-N2-(6-(piperazin-1-yl)pyridin-3-yl)-5-methylpyrimidine-2,4-diamine], less than 500 nM; with `Cc1cnc(Nc2ccc(C(=O)NC3CCC3)nc2)nc1Nc1ccc2oc(=O)[nH]c2c1` [II-151, 5-[5-Methyl-4-(2-oxo-2,3-dihydro-benzooxazol-5-ylamino)-pyrimidin-2-ylamino]-pyridine-2-carboxylic acid cyclobutylamide], less than 500 nM. For `Cc1cnc(Nc2cc(F)cc(Cl)c2)nc1Nc1ccc2oc(=O)[nH]c2c1` [Compound I-186, 5-[2-(3-Chloro-5-fluoro-phenylamino)-5-methyl-pyrimidin-4-ylamino]-3H-benzooxazol-2-one], the IC50 was less than 500 nM. The same measure, in the same setting: next, `CCCNC(C)c1cccc(Nc2ncc(C)c(Nc3ccc4oc(=O)[nH]c4c3)n2)c1` (centres unmarked) [Compound I-208, 5-(5-methyl-2-(3-(1-(propylamino)ethyl)phenylamino)pyrimidin-4-ylamino)benzo[d]oxazol-2(3H)-one]: less than 500 nM; `Cc1cnc(Nc2cnc(N3CCN(C)CC3)c(F)c2)nc1Nc1ccc2oc(=O)[nH]c2c1` [II-111, N4-(benzo[d]oxazolin-2(3H)-one-5-yl)-N2-[3-fluoro-2-(4-methylpiperazin-1-yl)pyridine-5-yl]-5-methyl-2,4-pyrimidinediamine]: less than 500 nM. On to `COc1cc(Nc2ncc(C)c(Nc3ccc4oc(=O)[nH]c4c3)n2)cc(C)c1C` [Compound I-535, 5-(2-(3-methoxy-4,5-dimethylphenylamino)-5-methylpyrimidin-4-ylamino)benzo[d]oxazol-2(3H)-one], for which the IC50 was less than 500 nM.

For the molecule `Cc1cnc(Nc2ccc(N3C[C@H]4C[C@@H]3CN4C)nc2)nc1Nc1ccc2oc(=O)[nH]c2c1` [II-2, N4-(benzo[d]oxazol-2(3H)-on-5-yl)-N2-(6-((1R,4R)-5-methyl-2,5-diazabicyclo[2.2.1]heptan-2-yl)-pyridin-3-yl)-5-methylpyrimidine-2,4-diamine], the IC50 is less than 500 nM. For the molecule `Cc1cnc(Nc2ccc(C(C)C)cc2)nc1Nc1ccc2oc(=O)[nH]c2c1` [Compound I-419, 5-(2-(4-isopropylphenylamino)-5-methylpyrimidin-4-ylamino)benzo[d]oxazol-2(3H)-one], the IC50 is less than 500 nM.

Take `O=c1[nH]c2cc(Nc3nc(Nc4ccc(N5C[C@@H]6C[C@H]5CO6)nc4)ncc3F)ccc2o1` [II-34, N4-(benzoxazolin-2-on-5-yl)-N2-[2-((1S,4S)-2-oxa-5-azabicyclo[2.2.1]heptan-5-yl)pyridin-5-yl]-5-fluoropyrimidine-2,4-diamine]: the IC50 is less than 500 nM. As for `Cc1cnc(Nc2ccc(NC3CC4CCC(C3)N4C)nc2)nc1Nc1ccc2oc(=O)[nH]c2c1` (centres unmarked) [II-37, N4-(benzo[d]oxazol-2(3H)-on-5-yl)-N2-[2-(8-methyl-8-aza-bicyclo[3.2.1]oct-3-yl)aminopyridin-5-yl]-5-methylpyrimidine-2,4-diamine], the IC50 was 500 to 5000 nM. In the case of `COc1cc(Nc2ncc(C)c(Nc3ccc4oc(=O)[nH]c4c3)n2)cc(C(C)NC(C)C)c1` (centres unmarked) [Compound I-231, 5-(2-(3-(1-(isopropylamino)ethyl)-5-methoxyphenylamino)-5-methylpyrimidin-4-ylamino)benzo[d]oxazol-2(3H)-one], the IC50 is less than 500 nM. For `Cc1cnc(Nc2ccc(N3CCC(N(C)C)C3)nc2)nc1Nc1ccc2oc(=O)[nH]c2c1` (centres unmarked) [II-80, 5-(2-(6-(3-(dimethylamino)pyrrolidin-1-yl)pyridin-3-ylamino)-5-methylpyrimidin-4-ylamino)benzo[d]oxazol-2(3H)-one], the IC50 is less than 500 nM. For `Cc1cnc(Nc2ccc(N3CCN[C@@H](C)C3)nc2)nc1Nc1ccc2oc(=O)[nH]c2c1` [II-44, 5-{5-Methyl-2-[6-((S)-3-methyl-piperazin-1-yl)-pyridin-3-ylamino]-pyrimidin-4-ylamino}-3H-benzooxazol-2-one], the IC50 was less than 500 nM.

As for `COc1cc(C)cc(Nc2ncc(C)c(Nc3cc(C)c4oc(=O)n(COP(=O)(O)O)c4c3)n2)c1` [Compound I-536, Sodium (5-(2-(3-methoxy-5-methylphenylamino)-5-methylpyrimidin-4-ylamino)-7-methyl-2-oxobenzo[d]oxazol-3 (2H)-yl)methyl phosphate], the IC50 was in the range of 5000 to 10000 nM. In the case of `CCNC(=O)c1ccc(Nc2ncc(C)c(Nc3ccc4oc(=O)[nH]c4c3)n2)cc1` [Compound I-137, N-Ethyl-4-[5-methyl-4-(2-oxo-2,3-dihydro-benzooxazol-5-ylamino)-pyrimidin-2-ylamino]-benzamide], the IC50 was less than 500 nM. For `Cc1cnc(Nc2ccc(OCCN(C)C)cc2)nc1Nc1ccc2oc(=O)[nH]c2c1` [Compound I-426, 5-{2-[4-(2-Dimethylamino-ethoxy)-phenylamino]-5-methyl-pyrimidin-4-ylamino}-3H-benzooxazol-2-one], the IC50 was less than 500 nM.

For `Cc1cnc(Nc2ccc(N3CC[C@H](N(C)C)C3)nc2)nc1Nc1ccc2oc(=O)[nH]c2c1` [II-90, (S)-5-(2-(6-(3-(dimethylamino)pyrrolidin-1-yl)pyridin-3-ylamino)-5-methylpyrimidin-4-ylamino)benzo[d]oxazol-2(3H)-one], the IC50 was less than 500 nM. With `COc1cc(Nc2ncc(F)c(Nc3ccc4oc(=O)[nH]c4c3)n2)cc(OC)c1OC` [Compound I-115, N4-(benzoxazolin-2-on-5-yl)-N2-(3,4,5-trimethoxyphenyl)-5-fluoropyrimidine-2,4-diamine], the IC50 is less than 500 nM. Take `COc1cc(Nc2ncc(C)c(Nc3cc(C)c4oc(=O)[nH]c4c3)n2)cc(C)c1OC` [Compound I-453, 5-(2-(3,4-dimethoxy-5-methylphenylamino)-5-methylpyrimidin-4-ylamino)-7-methylbenzo[d]oxazol-2(3H)-one]: the IC50 is less than 500 nM.

The assay is the same for the next values; noted with them: tested under conditions described in Example 3 (IL-2 stimulated human primary T-cell proliferation); read-out: ability to inhibit JAK3 activity, IC50 range (Table V).
As for `Cc1cnc(Nc2cccc(S(=O)(=O)C(F)(F)F)c2)nc1Nc1ccc2oc(=O)[nH]c2c1` [Compound I-118, N4-(benzo[d]oxazol-2(3H)-on-5-yl)-N2-(3-trifluoromethylsulfonyl)phenyl-5-methylpyrimidine-2,4-diamine], the half-inhibitory concentration (IC50) was less than 500 nM. Still for that read-out and setting: with `Cn1c(=O)n(C)c2cc(Nc3nc(Nc4cccc(S(N)(=O)=O)c4)ncc3F)ccc21` [Compound I-39, N4-(1,3-dimethylbenzimidazolin-2-on-5-yl)-N2-((3-aminosulfonyl)phenyl)-5-fluoropyrimidine-2,4-diamine] the figure was less than 500 nM; with `Cc1cnc(Nc2cc(C)c(C)c(F)c2)nc1Nc1ccc2oc(=O)[nH]c2c1` [Compound I-537, N2-(3,4-dimethyl-5-fluoro)phenyl-5-methyl-N4-(2-oxo-2,3-dihydro-1,3-benzoxazol-5-yl)-2,4-pyrimidinediamine], less than 500 nM; with `Cc1cnc(Nc2cc(F)cc(OC(F)F)c2)nc1Nc1ccc2oc(=O)[nH]c2c1` [Compound I-401, N2-(3-difluoromethoxy-5-fluoro)phenyl-5-methyl-N4-(2-oxo-2,3-dihydro-1,3-benzoxazol-5-yl)-2,4-pyrimidinediamine], less than 500 nM.

`Cc1cnc(Nc2ccc(N3CCC(NC(=O)C(C)(C)C)C3)nc2)nc1Nc1ccc2oc(=O)[nH]c2c1` (centres unmarked) [II-102, N-(1-(5-(5-methyl-4-(2-oxo-2,3-dihydrobenzo[c]oxazol-5-ylamino)pyrimidin-2-ylamino)pyridin-2-yl)pyrrolidin-3-yl)pivalamide]: the half-maximal inhibitory concentration (IC50) was less than 500 nM. For `Cc1cnc(Nc2cccc(OC(C)(C)C#N)c2)nc1Nc1ccc2oc(=O)[nH]c2c1` [Compound I-342, N2-[3-(1-cyano-1-methyl)ethoxy]phenyl-5-methyl-N4-(2-oxo-2,3-dihydro-1,3-benzoxazol-5-yl)-2,4-pyrimidinediamine], the IC50 is less than 500 nM. In the case of `COc1cc(Nc2ncc(C)c(Nc3ccc4oc(=O)[nH]c4c3)n2)cc(C(F)(F)F)c1OC` [Compound I-485, N2-(3,4-dimethoxy-5-trifluoromethyl)phenyl-5-methyl-N4-(2-oxo-2,3-dihydro-1,3-benzoxazol-5-yl)-2,4-pyrimidinediamine], the IC50 was less than 500 nM. With `CS(=O)(=O)c1cccc(Nc2ncc(F)c(Nc3ccc4oc(=O)[nH]c4c3)n2)c1` [Compound I-20], the IC50 was less than 500 nM. Regarding `Cc1ccc(Nc2ncc(C)c(Nc3ccc4oc(=O)[nH]c4c3)n2)cc1OC(C)(C)C(N)=O` [Compound I-392, N2-[3-(1-aminocarbonyl-1-methyl)ethoxy-4-methyl]phenyl-5-methyl-N4-(2-oxo-2,3-dihydro-1,3-benzoxazol-5-yl)-2,4-pyrimidinediamine], the IC50 was less than 500 nM.

As to `Cc1cnc(Nc2cccc(NS(C)(=O)=O)c2)nc1Nc1ccc2c(c1)oc(=O)n2C` [Compound I-73, N2-((3-methylsulfonylamino)phenyl)-N4-(3-methyl-2-oxo-2,3-dihydrobenzo[d]oxazol-6-yl)-5-methylpyrimidine-2,4-diamine], the IC50 was less than 500 nM. On the same count and under the same terms, next, `Cc1cnc(Nc2ccc3c(c2)CN(C(=O)OC(C)(C)C)C3)nc1Nc1ccc2oc(=O)[nH]c2c1` [III-3, N4-(benzo[d]oxazol-2(3H)-on-5-yl)-N2-(2-tert-butoxoxycarbonylisoindolin-5-yl)-5-methylpyrimidine-2,4-diamine]: less than 500 nM.
